Reference: ChEMBL document CHEMBL6087462, “Cuminaldehyde Potentiates Antiproteolytic Peptide Efficacy via Parallel Pathways of Enhanced Inner Membrane-Damaging Activity and Inhibition of Bacterial Energy Metabolism” (J Med Chem, 2025)

Key:
[1] = system: Escherichia coli; test: Synergistic antimicrobial activity against Escherichia coli 25922 assessed as fractional inhibitory concentration index in presence of carvacrol by checkerboard broth microdilution assay; format: functional
[2] = system: Escherichia coli; test: Synergistic antimicrobial activity against Escherichia coli UB1005 assessed as fractional inhibitory concentration index in presence of citronellal by checkerboard broth microdilution assay; format: functional
[3] = system: Escherichia coli; test: Synergistic antimicrobial activity against Escherichia coli UB1005 assessed as fractional inhibitory concentration index in presence of carvacrol by checkerboard broth microdilution assay; format: functional
[4] = system: Escherichia coli; test: Synergistic antimicrobial activity against Escherichia coli K88 assessed as fractional inhibitory concentration index in presence of cuminaldehyde by checkerboard broth microdilution assay; format: functional
[5] = system: Escherichia coli; test: Synergistic antimicrobial activity against Escherichia coli K88 assessed as fractional inhibitory concentration index in presence of thymol by checkerboard broth microdilution assay; format: functional
[6] = system: Escherichia coli; test: Synergistic antimicrobial activity against Escherichia coli K99 assessed as fractional inhibitory concentration index in presence of citral by checkerboard broth microdilution assay; format: functional
[7] = system: Escherichia coli; test: Synergistic antimicrobial activity against Escherichia coli 078 assessed as fractional inhibitory concentration index in presence of perillaldehyde by checkerboard broth microdilution assay; format: functional, 78
[8] = system: Salmonella typhimurium; test: Synergistic antimicrobial activity against Salmonella typhimurium 14028 assessed as fractional inhibitory concentration index in presence of citral by checkerboard broth microdilution assay; format: functional, Salmonella enterica subsp. enterica serovar Typhimurium
[9] = system: Salmonella typhimurium; test: Synergistic antimicrobial activity against Salmonella typhimurium 14028 assessed as fractional inhibitory concentration index in presence of thymol by checkerboard broth microdilution assay; format: functional, Salmonella enterica subsp. enterica serovar Typhimurium
[10] = system: Salmonella typhimurium; test: Synergistic antimicrobial activity against Salmonella typhimurium 7731 assessed as fractional inhibitory concentration index in presence of thymol by checkerboard broth microdilution assay; format: functional, Salmonella enterica subsp. enterica serovar Typhimurium
[11] = Synergistic antimicrobial activity against Salmonella enterica subsp. enterica serovar Pullorum 7913 assessed as fractional inhibitory concentration index in presence of citral by checkerboard broth microdilution assay; format: functional
[12] = Synergistic antimicrobial activity against Salmonella enterica subsp. enterica serovar Pullorum 7913 assessed as fractional inhibitory concentration index in presence of carvacrol by checkerboard broth microdilution assay; format: functional
[13] = system: Pseudomonas aeruginosa; test: Synergistic antimicrobial activity against Pseudomonas aeruginosa 27853 assessed as fractional inhibitory concentration index in presence of perillaldehyde by checkerboard broth microdilution assay; format: functional
[14] = system: Pseudomonas aeruginosa; test: Synergistic antimicrobial activity against Pseudomonas aeruginosa 27853 assessed as fractional inhibitory concentration index in presence of thymol by checkerboard broth microdilution assay; format: functional
[15] = system: Staphylococcus aureus; test: Synergistic antimicrobial activity against Staphylococcus aureus 25923 assessed as fractional inhibitory concentration index in presence of citral by checkerboard broth microdilution assay; format: functional
[16] = system: Staphylococcus aureus; test: Synergistic antimicrobial activity against Staphylococcus aureus 25923 assessed as fractional inhibitory concentration index in presence of carvacrol by checkerboard broth microdilution assay; format: functional
[17] = system: Staphylococcus aureus; test: Synergistic antimicrobial activity against Staphylococcus aureus 29213 assessed as fractional inhibitory concentration index in presence of cuminaldehyde by checkerboard broth microdilution assay; format: functional
[18] = system: Staphylococcus aureus; test: Synergistic antimicrobial activity against Staphylococcus aureus 29213 assessed as fractional inhibitory concentration index in presence of citronellal by checkerboard broth microdilution assay; format: functional
[19] = system: Staphylococcus aureus; test: Synergistic antimicrobial activity against Staphylococcus aureus 29213 assessed as fractional inhibitory concentration index in presence of citral by checkerboard broth microdilution assay; format: functional
[20] = system: Staphylococcus epidermidis; test: Synergistic antimicrobial activity against Staphylococcus epidermidis 12228 assessed as fractional inhibitory concentration index in presence of cuminaldehyde by checkerboard broth microdilution assay; format: functional
[21] = system: Staphylococcus epidermidis; test: Synergistic antimicrobial activity against Staphylococcus epidermidis 12228 assessed as fractional inhibitory concentration index in presence of perillaldehyde by checkerboard broth microdilution assay; format: functional
[22] = system: Staphylococcus epidermidis; test: Synergistic antimicrobial activity against Staphylococcus epidermidis 12228 assessed as fractional inhibitory concentration index in presence of carvacrol by checkerboard broth microdilution assay; format: functional
[23] = system: Staphylococcus aureus; test: Synergistic antimicrobial activity against Staphylococcus aureus 43300 assessed as fractional inhibitory concentration index in presence of citronellal by checkerboard broth microdilution assay; format: functional
[24] = system: Staphylococcus aureus; test: Synergistic antimicrobial activity against Staphylococcus aureus 43300 assessed as fractional inhibitory concentration index in presence of perillaldehyde by checkerboard broth microdilution assay; format: functional
[25] = system: Enterococcus faecalis; test: Synergistic antimicrobial activity against Enterococcus faecalis 29212 assessed as fractional inhibitory concentration index in presence of citronellal by checkerboard broth microdilution assay; format: functional
[26] = system: Enterococcus faecalis; test: Synergistic antimicrobial activity against Enterococcus faecalis 29212 assessed as fractional inhibitory concentration index in presence of perillaldehyde by checkerboard broth microdilution assay; format: functional
[27] = system: Escherichia coli; test: Antimicrobial activity against Escherichia coli ATCC 25922 assessed as reduction in microbial growth by CLSI based broth microdilution method; format: functional
[28] = system: Escherichia coli; test: Antimicrobial activity against Escherichia coli UB 1005 assessed as reduction in microbial growth by CLSI based broth microdilution method; format: functional
[29] = system: Pseudomonas aeruginosa; test: Antimicrobial activity against Pseudomonas aeruginosa ATCC 27853 assessed as reduction in microbial growth by CLSI based broth microdilution method; format: functional
[30] = system: Staphylococcus epidermidis; test: Antimicrobial activity against Staphylococcus epidermidis ATCC 12228 assessed as reduction in microbial growth by CLSI based broth microdilution method; format: functional
[31] = system: Staphylococcus aureus; test: Antimicrobial activity against Staphylococcus aureus 43300 assessed as reduction in microbial growth by CLSI based broth microdilution method; format: functional
[32] = system: Escherichia coli; test: Synergistic antimicrobial activity against Escherichia coli 078 assessed as fractional inhibitory concentration by checkerboard broth microdilution assay; format: functional
[33] = system: Staphylococcus aureus; test: Synergistic antimicrobial activity against Staphylococcus aureus ATCC 25923 assessed as fractional inhibitory concentration by checkerboard broth microdilution assay; format: functional
[34] = system: Staphylococcus epidermidis; test: Synergistic antimicrobial activity against Staphylococcus epidermidis ATCC 12228 assessed as fractional inhibitory concentration by checkerboard broth microdilution assay; format: functional
[35] = system: Escherichia coli; test: Antimicrobial activity against Escherichia coli 078 assessed as reduction in microbial growth in presence of cuminaldehyde by CLSI based broth microdilution method; format: functional; conditions: 78
[36] = system: Salmonella typhimurium; test: Antimicrobial activity against Salmonella typhimurium ATCC 14028 assessed as reduction in microbial growth in presence of cuminaldehyde by CLSI based broth microdilution method; format: functional, Salmonella enterica subsp. enterica serovar Typhimurium; conditions: Salmonella enterica
[37] = system: Staphylococcus aureus; test: Antimicrobial activity against Staphylococcus aureus ATCC 25923 assessed as reduction in microbial growth in presence of cuminaldehyde by CLSI based broth microdilution method; format: functional
[38] = system: Enterococcus faecalis; test: Antimicrobial activity against Enterococcus faecalis ATCC 29212 assessed as reduction in microbial growth in presence of cuminaldehyde by CLSI based broth microdilution method; format: functional
[39] = Antimicrobial activity against Salmonella enterica subsp. enterica serovar Pullorum ATCC 7913 assessed as cuminaldehyde MIC by CLSI based broth microdilution method; format: functional
[40] = system: Staphylococcus epidermidis; test: Antimicrobial activity against Staphylococcus epidermidis ATCC 12228 assessed as cuminaldehyde MIC by CLSI based broth microdilution method; format: functional
[41] = system: Staphylococcus aureus; test: Antimicrobial activity against Staphylococcus aureus 43300 assessed as cuminaldehyde MIC by CLSI based broth microdilution method; format: functional
[42] = system: Enterococcus faecalis; test: Antimicrobial activity against Enterococcus faecalis ATCC 29212 assessed as cuminaldehyde MIC by CLSI based broth microdilution method; format: functional
[43] = system: Escherichia coli; test: Drug resistance, ratio of MIC for Escherichia coli ATCC 25922 after 30 passages to MIC for Escherichia coli ATCC 25922 […] after initial exposure; format: functional

## CC[C@H](C)[C@H](NC(=O)[C@@H](NC(=O)[C@@H](CCCNC(=N)N)NC(=O)[C@H](C)NC(=O)[C@H](C)NC(=O)[C@@H](N)Cc1cccc2ccccc12)[C@@H](C)CC)C(=O)N[C@@H](CC(C)C)C(=O)N[C@H](CCCNC(=N)N)C(=O)N[C@@H](Cc1c[nH]c2ccccc12)C(=O)N[C@H](CCCNC(=N)N)C(=O)N[C@@H](Cc1ccccc1)C(=O)N[C@@H](CCCNC(=N)N)C(=O)O
[1]
  fractional inhibitory concentration index (FICI): 0.5
[2]
  fractional inhibitory concentration index (FICI): 0.266
[3]
  fractional inhibitory concentration index (FICI): 0.313
[4]
  fractional inhibitory concentration index (FICI): 0.125
[5]
  fractional inhibitory concentration index (FICI): 0.313
[6]
  fractional inhibitory concentration index (FICI): 0.375
[7]
  fractional inhibitory concentration index (FICI): 0.188
[8]
  fractional inhibitory concentration index (FICI): 0.141
[9]
  fractional inhibitory concentration index (FICI): 0.313
[10]
  fractional inhibitory concentration index (FICI): 0.313
[11]
  fractional inhibitory concentration index (FICI): 0.25
[12]
  fractional inhibitory concentration index (FICI): 0.625
[13]
  fractional inhibitory concentration index (FICI): 0.141
[14]
  fractional inhibitory concentration index (FICI): 0.25
[15]
  fractional inhibitory concentration index (FICI): 0.25
[16]
  fractional inhibitory concentration index (FICI): 0.375
[17]
  fractional inhibitory concentration index (FICI): 0.094
[18]
  fractional inhibitory concentration index (FICI): 0.94
[19]
  fractional inhibitory concentration index (FICI): 0.385
[20]
  fractional inhibitory concentration index (FICI): 0.375
[21]
  fractional inhibitory concentration index (FICI): 0.375
[22]
  fractional inhibitory concentration index (FICI): 1
[23]
  fractional inhibitory concentration index (FICI): 0.188
[24]
  fractional inhibitory concentration index (FICI): 0.75
[25]
  fractional inhibitory concentration index (FICI): 0.375
[26]
  fractional inhibitory concentration index (FICI): 0.625
[27]
  MIC: 4 µg/mL
[28]
  MIC: 16 µg/mL
[29]
  MIC: 32 µg/mL
[30]
  MIC: 4 µg/mL
[31]
  MIC: 8 µg/mL
[32]
  FIC: 0.063
[33]
  FIC: 0.063
[34]
  FIC: 0.25
[35]
  MIC: 2 µg/mL
[36]
  MIC: 0.5 µg/mL
[37]
  MIC: 8 µg/mL
[38]
  MIC: 1 µg/mL
[39]
  MIC: 1020 µg/mL
[40]
  MIC: 256 µg/mL
[41]
  MIC: 1020 µg/mL
[42]
  MIC: 512 µg/mL
[43]
  Ratio: 2
